Results as given in publication PMC12380353, “MK-8527 is a novel inhibitor of HIV-1 reverse transcriptase translocation with potential for extended-duration dosing” (PLOS Biology, 2025).

Experiments:
[1] = test system: HIV-1; assay: Multicycle antiviral assay in MT4-GFP cells; format: cell-based; settings: 10% NHS
Description: Compounds were evaluated for their ability to prevent HIV-1 infection in MT4-GFP cells as described in Diamond, and colleagues. HIV-1 replication was monitored using the MT4-gag-GFP clone D3, and MT4 cells with a GFP reporter gene, the expression of which is dependent on the HIV-1 expressed proteins tat and rev. […] Proviral variants used for these studies were generated by site-directed mutagenesis in the WT R8 proviral plasmid. Virus was produced by transfection in 293T cells.
Briefly, MT4-GFP cells were cultured overnight with the appropriate HIV-1 variant at an approximate multiplicity of infection of 0.01. After approximately 19 h of infection, the cells were washed and resuspended in assay media containing 10% normal human serum (NHS) before being added to 384-well compound plates containing 10-point serial 3-fold dilutions of compound. Controls included no inhibitor (dimethyl sulfoxide [DMSO] only) and a combination of 3 antiviral agents, efavirenz, indinavir, and an integrase strand transfer inhibitor, L-002254051, at final concentrations of 4 µM each. The infected or treated cells were cultured at 37 °C, 5% CO2, and 90% humidity until evaluation of infection was conducted at approximately 48 and 72 h post-infection by counting the number of GFP cells in each well using an Acumen eX3 scanner (SPT Labtech; Melbourn, UK). The reproductive ratio, R, was calculated by dividing the number of infected cells at 72 h by the number at 48 h post-infection. The percentage inhibition caused by a test compound was calculated by the following formula:
inhibition = [1−(Rtest compound − Rpositive control)]/(RDMSO only − Rpositive control) × 100%\]
The dose–response curves of each test compound were plotted as percentage inhibition versus the test concentration.

[2] = CellTiter-Glo (CTG) cytotoxicity in MT4-GFP cells; settings: human
[3] = test system: HIV-1; assay: Single-cycle antiviral assay in PBMCs; format: cell-based
Description: To evaluate the ability of inhibitors to prevent HIV-1 infection in primary cells, human PBMCs obtained from Biological Specialty Corporation (Colmar, PA, USA) were used to assess antiviral activity. The proviral variants used for these studies were generated by site-directed mutagenesis in a proviral vector derived from NL43 [52] that encodes GFP (pNLG1-P2A-GFP). Virus was produced by transfection in 293T cells.
PBMCs were activated with phytohemagglutinin (PHA) at 5 μg/mL in Roswell Park Memorial Institute (RPMI) 1640 medium containing 10% heat-inactivated fetal bovine serum (FBS) for 2–3 days. Compound plates were prepared by dispensing compounds dissolved in DMSO into 384-well poly-d-lysine-coated plates (0.2 μL per well) using an Echo acoustic dispenser (Labcyte; San Jose, CA, USA). Each compound was tested in a 10-point serial 3-fold dilution (typical final concentrations: 5,000 to 0.1 nM). Controls included no inhibitor (DMSO only) and a combination of 3 antiviral agents, efavirenz, indinavir, and the integrase strand transfer inhibitor, L-002254051, at final concentrations of 4 μM each. PHA-activated human PBMCs were washed and resuspended in RPMI 1640 containing 10% NHS and 30 units per mL of interleukin-2 (IL-2) at 6 × 10^5 cells per mL. PBMCs were added to the compound plates and cultured for 24 h at 37 °C, 5% CO2, and 90% humidity. The appropriate HIV-1 variant was added to the PBMCs and cultured at 37 °C, 5% CO2, and 90% humidity for an additional 24 h.
HIV-1–infected cells were quantified by counting the number of GFP cells in each well using an Acumen eX3 scanner (SPT Labtech; Melbourn, UK).

[4] = test system: MT4-GFP cells; assay: CellTiter-Glo (CTG) cytotoxicity in MT4-GFP cells; settings: read-out: MT4-GFP CTG CC50, CellTiter-Glo
[5] = Human immunodeficiency virus 1, WT HIV-1, multicycle assay
[6] = Human immunodeficiency virus 1, PBMC, read-out: PBMC IC50, HIV-1, single-cycle assay, human PBMCs, 10% NHS

Molecule	IC50 [1, 5] [nM]	CC50 [2] [nM]	IC50 [3, 6] [nM]	MT4-GFP IC50 ([1]; WT HIV-1, multicycle assay)	PBMC IC50 ([3]; HIV-1, single-cycle assay, human PBMCs, 10% NHS)	IC50 ([1]; WT HIV-1, multicycle assay) [nM]	CC50 [4] [nM]	IC50 ([3]; HIV-1, single-cycle assay, human PBMCs, 10% NHS, read-out: PBMC IC50) [nM]
C#CC1(CO)CC(n2cnc3c(N)nc(Cl)nc32)CC1O (stereo not drawn) [Compound 18, 4-(6-amino-2-chloro-9H-purin-9-yl)-2-ethynyl-2-(hydroxy-methyl)-cyclopentan-1-ol]	22700	> 42000	982					
C#C[C@]1(CO)C[C@@H](n2cnc3c(=O)[nH]c(N)nc32)C[C@@H]1O [Compound 20, 2-amino-9-((1R,3S,4S)-3-ethynyl-4-hydroxy-3-(hydroxymethyl)-cyclopentyl)-1,9-dihydro-6H-purin-6-one]	103	> 42000	20.4					
C#C[C@]1(CO)O[C@@H](n2cnc3c(N)nc(Cl)nc32)C[C@@H]1O [Compound 1, (2R,3S,5R)-5-(6-amino-2-chloro-9H-purin-9-yl)-2-ethynyl-2-(hydroxymethyl)-tetrahydrofuran-3-ol]	2.7	> 42000	0.4					
C#C[C@]1(CO)O[C@@H](n2ccc3c(N)ncnc32)C[C@@H]1O [Compound 5, (2R,3S,5R)-5-(4-amino-7H-pyrrolo[2,3-d]pyrimidin-7-yl)-2-ethynyl-2-(hydroxymethyl)tetrahydrofuran-3-ol]	1.9	30800	0.9					
C#C[C@]1(CO)O[C@@H](c2ccc3c(N)ncnn23)C[C@@H]1O [Compound 16, (2R,3S,5R)-5-(4-aminopyrrolo[2,1-f][1,2,4]triazin-7-yl)-2-ethynyl-2-(hydroxymethyl)tetrahydrofuran-3-ol]	21.6	22300	19.2					
C#C[C@]1(CO)O[C@@H](n2cnc3c(N)nc(C)nc32)C[C@@H]1O [Compound 2, (2R,3S,5R)-5-(6-amino-2-methyl-9H-purin-9-yl)-2-ethynyl-2-(hydroxymethyl)-tetrahydrofuran-3-ol]	109	> 42000	35.9					
C#C[C@]1(CO)O[C@@H](n2cnc3c(N)nc(C(F)(F)F)nc32)C[C@@H]1O [Compound 3, (2R,3S,5R)-5-(6-amino-2-(trifluoromethyl)-9H-purin-9-yl)-2-ethynyl-2-(hydroxymethyl)tetrahydrofuran-3-ol]	> 42000	> 42000	> 11900					
C#CC1(CO)CC(n2cnc3c(N)nc(F)nc32)CC1O (stereo not drawn) [Compound 17, 4-(6-amino-2-fluoro-9H-purin-9-yl)-2-ethynyl-2-(hydroxy-methyl)cyclopentan-1-ol]	5020	> 42000	383					
C#C[C@]1(CO)C[C@@H](n2ccc3c(N)nc(Cl)nc32)C[C@@H]1O [Compound 19, (1S,2S,4R)-4-(4-amino-2-chloro-7H-pyrrolo[2,3-d]pyrimidin-7-yl)-2-ethynyl-2-(hydroxymethyl)cyclopentan-1-ol]	22600	> 42000	1160					
C#C[C@]1(CO)O[C@@H](n2cc(F)c3c(N)nc(Cl)nc32)C[C@@H]1O [Compound 13, (2R,3S,5R)-5-(4-amino-2-chloro-5-fluoro-7H-pyrrolo[2,3-d]pyrimidin-7-yl)-2-ethynyl-2-(hydroxymethyl)tetrahydrofuran-3-ol]	2.4	> 42000	0.2	single-digit nanomolar potency	subnanomolar potency			
C#C[C@]1(CO)O[C@@H](n2ccc3c(N)nc(F)nc32)C[C@@H]1O [Compound 11, (2R,3S,5R)-5-(4-amino-2-fluoro-7H-pyrrolo[2,3-d]pyrimidin-7-yl)-2-ethynyl-2-(hydroxymethyl)tetrahydrofuran-3-ol]	16.8	> 42000	10.5					
(2R,3S,5R)-5-(4-amino-5-fluoro-7H-pyrrolo[2,3-d]pyrimidin-7-yl)-2-ethynyl-2-(hydroxymethyl)tetrahydrofuran-3-ol [Compound 9]						37200	> 42000	3410
C#C[C@]1(CO)O[C@@H](n2c(C)cc3c(N)ncnc32)C[C@@H]1O [Compound 6, (2R,3S,5R)-5-(4-amino-6-methyl-7H-pyrrolo[2,3-d]pyrimidin-7-yl)-2-ethynyl-2-(hydroxymethyl)tetrahydrofuran-3-ol]	> 2000	> 42000	> 2000					
C#C[C@]1(CO)O[C@@H](n2nnc3c(N)ncnc32)C[C@@H]1O [Compound 15, (2R,3S,5R)-5-(7-amino-3H-[1,2,3]triazolo[4,5-d]pyrimidin-3-yl)-2-ethynyl-2-(hydroxymethyl)tetrahydrofuran-3-ol]	7590	> 42000	7570	completely inactive				
C#C[C@]1(CO)O[C@@H](n2cc(-c3ccn[nH]3)c3c(N)ncnc32)C[C@@H]1O [Compound 10, (2R,3S,5R)-5-(4-amino-5-(1H-pyrazol-5-yl)-7H-pyrrolo[2,3-d]pyrimidin-7-yl)-2-ethynyl-2-(hydroxymethyl)tetrahydrofuran-3-ol]	1590	> 42000	907					
C#C[C@]1(CO)O[C@@H](n2cc(C)c3c(N)ncnc32)C[C@@H]1O [Compound 7, (2R,3S,5R)-5-(4-amino-5-methyl-7H-pyrrolo[2,3-d]pyrimidin-7-yl)-2-ethynyl-2-(hydroxymethyl)tetrahydrofuran-3-ol]	1680	> 42000	682					
C#C[C@]1(CO)O[C@@H](n2cnc3c(NC4CC4)nc(F)nc32)C[C@@H]1O [Compound 4, (2R,3S,5R)-5-(6-(cyclopropylamino)-2-fluoro-9H-purin-9-yl)-2-ethynyl-2-(hydroxymethyl)tetrahydrofuran-3-ol]	4300	> 42000	3290					
C#C[C@]1(CO)O[C@@H](n2ccc3c(N)nc(N)nc32)C[C@@H]1O [Compound 14, (2R,3S,5R)-5-(2,4-diamino-7H-pyrrolo[2,3-d]pyrimidin-7-yl)-2-ethynyl-2-(hydroxymethyl)tetrahydrofuran-3-ol]	277	> 42000	257					
